Results as given in patent publication US7186855B2, “Prodrugs of GABA analogs, compositions and uses thereof” (Xenoport, Inc., priority 2001, dated 2007).

How the values were obtained:
[1] = Uptake of gabapentin following intracolonic administration of gabapentin or gabapentin prodrugs in rats; format: in vivo; settings: dose equivalent to 25 mg gabapentin per kg
Experimental: Sustained release oral dosage forms, which release drug slowly over periods of 6–24 hours, generally release a significant proportion of the dose within the colon. […] This experiment was conducted to assess the suitability of gabapentin prodrugs for use in an oral sustained release dosage form.
Rats were obtained commercially and were pre-cannulated in the both the ascending colon and the jugular vein. Animals were conscious at the time of the experiment. All animals were fasted overnight and until 4 hours post-dosing. Gabapentin or gabapentin prodrugs (59), (63), (69), (72), (77), (79), (85), (117) and (126) were administered as a solution (in water or PEG 400) directly into the colon via the cannula at a dose equivalent to 25 mg of gabapentin per kg. Blood samples (0.5 mL) were obtained from the jugular cannula at intervals over 8 hours and were quenched immediately by addition of acetonitrile/methanol to prevent further conversion of the prodrug. Blood samples were analyzed as described below.
• 1. In blank 1.5 mL eppendorf tubes, 300 μL of 50/50 acetonitrile/methanol and 20 μL of p-chlorophenylalanine was added as an internal standard. • 2. […]
An API 2000 LC/MS/MS spectrometer equipped with Shidmadzu 10DVp binary pumps and a CTC HTS-PAL autosampler were used in the analysis. […] The peaks were integrated using Analyst 1.1 quantitation software.

mouse = settings: cited from earlier work

SMILES	gabapentin AUC relative to colonic administration of gabapentin itself [1]	maximum plasma concentration of gabapentin (Cmax) relative to colonic administration of gabapentin itself [1]	toxicity (LD50, mouse) (mouse)
CC(OC(=O)NCC1(CC(=O)O)CCCCC1)OC(=O)C(C)C (stereo not drawn) [(77), 1-{[(α-Isobutanoyloxyethoxy)carbonyl]aminomethyl}-1-Cyclohexane Acetic Acid]	greater than 10 fold	greater than 10 fold	
NCC1(CC(=O)O)CCCCC1 [gabapentin]			more than 8000 mg/kg
O=C1CC2(CCCCC2)CN1 [lactam (5)]			300 mg/kg
